# Reference: article PMC8224802 (Pharmaceutics, 2021)
# Read-outs that look alike come from different tables or passages of the source.
# Columns and labels:
# [1] = Plasma protein binding by rapid equilibrium dialysis (human plasma); assay type: in vitro ADME
# Protocol: (§1) A 200 μL spiked samples and 400 μL PBS were placed into the “sample” and “buffer” chambers of the RED device, respectively. After 4-h incubation to equilibrate between the buffer and plasma compartments, the RED plate was sampled from both compartments. The samples were matrix-matched for analysis by addition of either diluted plasma or buffer; (a) blank diluted plasma added to the buffer samples and (b) blank buffer added to the diluted plasma sample, at a ratio of 50:50 v/v. The unbound fractions in microsomes and diluted plasma were determined by dividing the analyte/IS peak area ratios of the (a) sample by those of the (b) sample. The unbound fraction in diluted plasma (fu,d) was converted to the unbound fraction in undiluted plasma (fu) using a Kalvass equation as below (DF: dilution factor). (1) fu=1/DF/[(1/fu,d)−1]+1/DF
# [2] = Plasma protein binding by rapid equilibrium dialysis (rat plasma); assay type: in vitro ADME, Sprague-Dawley rat
# Protocol: as §1
# [3] = Microsomal protein binding by rapid equilibrium dialysis (RLM); assay type: in vitro ADME, rat
# Protocol: as §1
# [4] = In vitro microsomal metabolism of RPG (disappearance) in RLM; assay type: in vitro ADME, rat; conditions: RLM 0.3 mg/mL, 1–500 μM RPG, Michaelis–Menten fit
# Protocol: (§2) At 0, 30, and 60 min after starting the metabolic reaction, a 50 μL aliquot of the incubation mixture was sampled and transferred to a clean 1.5-mL microcentrifuge tube containing 150 μL of ice-cold acetonitrile to terminate the metabolic reaction.
# (§3) The intrinsic metabolic clearance (CLint) was calculated as Vmax/Km. […] Max and Min are the initial and final Y values, respectively, and the power P represents the Hill coefficient. […] Vmax and Km are the same as those defined in Equation (2). The parameter α is indicative of the inhibition type. The mixed model is a general equation that includes competitive, uncompetitive, and noncompetitive inhibition as special cases. When α = 1, the mixed model is identical to a noncompetitive inhibition. When α is very large (α→∞) or very small (α→0), the mixed model becomes identical to competitive inhibition or uncompetitive inhibition, respectively.
# [5] = In vitro microsomal metabolism of RPG (disappearance) in HLM; assay type: in vitro ADME, human; conditions: for Km: human, human liver microsomes
# Protocol: as §2, §3
# [6] = tested on: microsomal metabolism of RPG in RLM; assay: In vitro inhibition of RPG metabolism by QCT in RLM; assay type: in vitro ADME, rat; conditions: RLM
# Protocol: (§4) The intrinsic metabolic clearance (CLint) was calculated as Vmax/Km. […] The parameter α is indicative of the inhibition type. The mixed model is a general equation that includes competitive, uncompetitive, and noncompetitive inhibition as special cases. When α = 1, the mixed model is identical to a noncompetitive inhibition. When α is very large (α→∞) or very small (α→0), the mixed model becomes identical to competitive inhibition or uncompetitive inhibition, respectively.
# [7] = tested on: microsomal metabolism of RPG in HLM; assay: In vitro inhibition of RPG metabolism by QCT in HLM; assay type: in vitro ADME, human; conditions: HLM
# Protocol: as §4
# [8] = In vivo intravenous pharmacokinetic study of RPG without or with QCT in rats; set-up: species or system Sprague-Dawley rats; conditions: for AUC / clearance / half-life / Vd: Sprague-Dawley, rat, plasma, 0.4 mg/kg; for Vd: read-out: Vss
# Protocol: Rats were anesthetized via intramuscular injection of 10 mg/kg zoletil. The femoral vein and artery of the rats were cannulated using a polyethylene tube (BD Medical, Franklin Lakes, NJ, USA). […] The vehicle solutions for the intravenous and oral doses were composed of PEG 400 and aqueous 0.3% CMC solution (50:50 v/v). Approximately 300 μL of blood was collected via the femoral artery at 0, 1, 5, 15, 30, 60, 90, 120, 180, and 240 min after intravenous injection and at 10, 20, 30, 45, 60, 90, 120, 180, and 240 min after oral administration.
# Non-compartmental analysis (WinNonlin, version 3.1, NCA200 and 201; Certara, Inc., Princeton, NJ, USA) was conducted to estimate the following pharmacokinetic parameters: total area under the plasma concentration–time curve from time zero to time infinity (AUC); total body clearance (CL, calculated as dose/AUC); terminal half-life (t1/2); and apparent volume of distribution at steady state (Vss). For comparison, the extent of absolute oral bioavailability (F; expressed as percent of dose administered) was calculated by dividing the dose-normalized AUC after oral administration by the dose-normalized AUC after intravenous injection. The peak plasma concentration (Cmax) and time to reach Cmax (Tmax) were obtained directly from the measured experimental data.
# [9] = In vivo oral pharmacokinetic study of RPG without or with QCT in rats; set-up: species or system Sprague-Dawley rats; conditions: for bioavailability: read-out: F (absolute oral bioavailability)
# Protocol: Rats were anesthetized via intramuscular injection of 10 mg/kg zoletil. The femoral vein and artery of the rats were cannulated using a polyethylene tube (BD Medical, Franklin Lakes, NJ, USA). […] The vehicle solutions for the intravenous and oral doses were composed of PEG 400 and aqueous 0.3% CMC solution (50:50 v/v).
# For comparison, the extent of absolute oral bioavailability (F; expressed as percent of dose administered) was calculated by dividing the dose-normalized AUC after oral administration by the dose-normalized AUC after intravenous injection. The peak plasma concentration (Cmax) and time to reach Cmax (Tmax) were obtained directly from the measured experimental data.
# [10] = humans; cited from earlier work
# [11] = RPG 0.4 mg/kg iv, QCT 25 mg/kg iv
# [12] = iv, RPG 0.4 mg/kg iv with QCT 25 mg/kg iv
# [13] = iv, RPG 0.4 mg/kg iv, RPG alone
# [14] = Sprague-Dawley, rat, plasma, po, 0.4 mg/kg, rats, RPG 0.4 mg/kg oral with QCT 100 mg/kg oral
# [15] = Sprague-Dawley, rat, plasma, po, 0.4 mg/kg, rats, RPG 0.4 mg/kg oral, RPG alone
# [16] = rats, RPG 0.4 mg/kg oral with QCT 100 mg/kg oral
# [17] = rats, RPG 0.4 mg/kg oral, QCT 100 mg/kg oral
# [18] = rats, RPG 0.4 mg/kg oral, RPG alone
smiles,measurement,setting,value
"CCOc1cc(CC(=O)N[C@@H](CC(C)C)c2ccccc2N2CCCCC2)ccc1C(=O)O [RPG, Repaglinide]",Change of fuP of RPG by the presence of QCT,"[1]; human plasma, RPG and QCT 5 μM each",not significantly altered
same,"fraction unbound at 4 h, 5 μM","[1]; human, plasma (20-fold diluted), read-out: fuP (unbound fraction in plasma)",0.0533 ± 0.006
same,"fraction unbound at 4 h, 5 μM","[2]; Sprague-Dawley, rat, plasma (20-fold diluted), read-out: fuP (unbound fraction in plasma)",0.0761 ± 0.0094
same,Change of fuP of RPG by the presence of QCT,"[2]; rat plasma, RPG and QCT 5 μM each",not significantly altered
same,Change of fuMIC of RPG by the presence of QCT,"[3]; RLM, RPG and QCT 5 μM each",not significantly altered
same,"fraction unbound at 4 h, 5 μM","[3]; rat, liver microsomes, read-out: fuMIC (unbound fraction in liver microsomes)",0.671 ± 0.009
same,"Vmax, metabolism of RPG",[4],3070 ± 960 pmol/min/mg protein
same,"Vmax, metabolism of RPG","[5]; HLM 0.3 mg/mL, 1–500 μM RPG, Michaelis–Menten fit",2850 ± 417 pmol/min/mg protein
same,Km,"[5]; Km, metabolism of RPG, HLM 0.3 mg/mL, 1–500 μM RPG, Michaelis–Menten fit",27 to 69.4 µM
same,Km,"[5]; Table S3, source Figure 3, read-out: Km used for estimation of R",27 µM
same,Km of RPG metabolism in the Ki estimation study,[6]; QCT 0 μM,53 µM
same,Km of RPG metabolism in the Ki estimation study,[6]; QCT 200 μM,81 µM
same,Km of RPG metabolism in the Ki estimation study,[7]; QCT 0 μM,23 µM
same,Km of RPG metabolism in the Ki estimation study,[7]; QCT 200 μM,111 µM
same,Hepatic availability (FH),[8]; 1 − EH,0.818–0.886
same,AeU,[8]; RPG 0.4 mg/kg iv with QCT 25 mg/kg iv,1.32 ± 0.88 % of dose
same,AUC of RPG higher with concurrent QCT than in control rats,[8]; [11],83.4%
same,CL of RPG lower with concurrent QCT than in control rats,[8]; [11],44.9%
same,Difference in Vss of RPG between QCT and control groups,[8]; [11],no significant differences
same,t1/2 of RPG higher with concurrent QCT than in control rats,[8]; [11],40.8%
same,AeU,"[8]; RPG 0.4 mg/kg iv, RPG alone",1.60 ± 0.77 % of dose
same,Increase of AUC of intravenous RPG after concurrent QCT,[8]; RPG iv with QCT iv vs RPG alone,1.83 fold
same,AUC,[8]; [12],1.55 µg·h/mL
same,clearance,[8]; [12],0.262 ± 0.0324 L/h/kg
same,half-life,[8]; [12],57.4 ± 10.6 min
same,Vd,[8]; [12],0.269 ± 0.025 L/kg
same,AUC,[8]; [13],0.845 µg·h/mL
same,clearance,[8]; [13],0.475 ± 0.0282 L/h/kg
same,half-life,[8]; [13],40.8 ± 4.2 min
same,Vd,[8]; [13],0.293 ± 0.018 L/kg
same,Urinary and fecal excretion of RPG administered intravenously,[8]; iv,≤ 1.60 % of the dose
same,"Hepatic clearance CLH (blood clearance, CL/RB)","[8]; iv RPG alone, assuming exclusive hepatic metabolism",0.547 L/h/kg
same,AUC,[9]; [14],0.803 µg·h/mL
same,Cmax,[9]; [14],0.238 ± 0.076 µg/mL
same,half-life,[9]; [14],148 ± 49 min
same,bioavailability,[9]; [14],95.1%
same,Cmax,[9]; [15],0.129 ± 0.033 µg/mL
same,half-life,[9]; [15],139 ± 66 min
same,bioavailability,[9]; [15],50.7%
same,Tmax,"[9]; Sprague-Dawley, rat, plasma, po, 0.4 mg/kg, read-out: Tmax, median (range) (converted)",45 min
same,AeGI,[9]; [16],2.90 ± 2.50 % of dose
same,AeU,[9]; [16],0.371 ± 0.336 % of dose
same,"Tmax, median (range)",[9]; [16],45 (30–60) min
same,AUC of RPG higher with concurrent QCT than in control rats,[9]; [17],87.6%
same,Cmax of RPG higher with concurrent QCT than in control rats,[9]; [17],84.2%
same,AeGI,[9]; [18],3.41 ± 1.65 % of dose
same,AeU,[9]; [18],0.458 ± 0.441 % of dose
same,Increase of AUC of orally administered RPG by oral QCT,"[9]; rats, RPG oral with QCT 100 mg/kg oral vs RPG alone",1.88 fold
same,Intestinal availability (FG),"[9]; rats, from F = Fabs × FG × FH with Fabs assumed 1",0.572–0.620
same,Fecal excretion of oral RPG,"[9]; rats, oral",2.21–5.78 % of the dose administered
same,F of RPG,[10],approximately 62.5%
